The values below come from patent publication US20160074420A1, “ORAL B12 THERAPY” (Emisphere Technologies, Inc., priority 2010, published 2016).

For data set [1] the following is noted: cited from earlier work.
In a further data set the test system is methylmalonic acid (MMA). Nature of the data set: Open label randomized study: serum MMA levels. The format is in vivo, human. Particulars: for mean (SD) percent change in MMA levels: serum. How it is done: (§1) This was an open-label, randomized 60-day study, with a 30-day extension, conducted in B12 deficient subjects. Subjects were assigned to a treatment according to a randomization schedule prepared by a statistician at the start of the study. The randomization scheme was stratified such that a balanced number of males and females were assigned to each treatment group. Subjects were randomized to receive either a 1000 μg oral tablet, administered once daily for 90 days or 1000 μg cyanocobalamin, administered IM on Days 1, 3, 7, 10, 14, 21, 30, 60 and 90.
(§2) A single tablet was self-administered in the fasted state and at least one hour prior to the morning meal with 50 mL water. IM study drug administration was performed by study personnel, in the research clinic, in the morning, in the fasted state and at least 1 hour prior to the morning meal on study Days 1, 3, 7, 10, 14, 21, 30, 60 and 90. For subjects assigned to receive tablets, treatment compliance was based on subject diary entries. Blood samples for pharmacodynamic assessments (efficacy variables) were collected from all subjects at baseline prior to dosing (Day 1), and on Days 15, 31, 61 and 91. Sample collection was carried out approximately 24 hours after the last dose administration, prior to that day's dose administration, and in the fasting state.
(§3) Serum cobalamin (B12) levels were determined by a validated microparticle enzyme immunoassay (MEIA) detection method with a calibration range of 100-2000 pg/mL. Sample dilution procedures were validated up to 4-fold dilution. Serum MMA levels were determined by a validated LC/MS/MS method with a calibration range of 5-200 ng/mL. Plasma HC levels were determined by a validated fluorescence polarization immunoassay (FIPA) detection method with a calibration range of 2.5-50 μmol/L; and plasma holotranscobalamin (active B12) levels were determined using a validated MEIA method, with a calibration range of 8-128 pmol/L. Sample dilution procedures were validated up to 32-fold dilution.
(§4) The primary efficacy variable was serum cobalamin levels on Day 61. The primary efficacy outcome compared the proportion of subjects in each treatment group whose cobalamin levels were normalized (≧350 pg/mL) on Day 61. The secondary efficacy variables were serum cobalamin levels on Day 91, serum MMA levels on Day 61 and Day 91 and, plasma total HC levels on Day 61 and Day 91.
(§5) The secondary efficacy outcomes were: comparison of the proportion of subjects in each treatment group whose cobalamin levels were normalized (≧350 pg/mL) on Day 91; comparison of the mean percent change from baseline in serum cobalamin levels among subjects in each treatment group on Day 61 and Day 91; comparison of the mean percent change from baseline in serum MMA levels among subjects in each treatment group on Day 61 and Day 91; comparison of the mean percent change from baseline in total plasma HC among subjects in each treatment group on Day 61 and Day 91; comparison of the mean first time to normalization of serum cobalamin (≧350 pg/mL) among subjects in each treatment group on Day 61 and Day 91. Exploratory efficacy variables and outcomes were: plasma holotranscobalamin levels on Day 61 and Day 91, measured by: comparison of the proportion of subjects in each treatment group whose holotranscobalamin levels were normalized (≧40 pmol/L) on Day 61 and Day 91; the relationship between cobalamin and holotranscobalamin levels on Day 61 and Day 91.
(§6) Change from baseline (CFB) is defined as (X−B). Percent change from baseline (PCFB) is defined as PCFB=100(X−B)/B, where B is the baseline (pre-dose Day 1) measurement and X is the measurement at Day 61 or Day 91, as required.
(§7) The proportion of subjects who achieved normalization of cobalamin levels (i.e., cobalamin ≧350 pg/mL) at Day 91 was to be analyzed using the same methodology as given above for the primary analysis (i.e., Day 61). […]

The subject of the next data set is homocysteine (HC). Description: Open label randomized study: plasma HC levels. In kind it is in vivo, human. Particulars: for mean (SD) percent change in HC levels: plasma. The protocol:
as §1, §2, §3, §4, §5, §6, §7

The nature of data set [2]: Open label randomized study: safety assessments (adverse events). In kind it is in vivo, human. The settings on record: 90-day study. The protocol:
Safety assessments consisted of monitoring adverse events (AEs), hematology, chemistry and urinalysis laboratory test results, concomitant medications, vital sign assessments, ECG and physical examination findings.
A resting 12-lead ECG was recorded at screening and at the End-of-Study visit prior to discharge from the study. The ECG parameters recorded included ventricular rate (bpm), PR interval (msec), QRS duration (msec), QT interval (msec), QTc interval (msec, Bazett's correction). A physical examination was performed at screening and at the End-of-Study visit prior to discharge from the study.
The safety population included all randomized subjects who received at least one administration of study product and who had at least one subsequent safety assessment. Subjects are included in this group based on the actual treatment received. All safety analyses were performed on the safety population.

Data set [3] in a line: Open label randomized study: serum cobalamin (B12) levels in subjects with mild vitamin B12 deficiency. In kind it is in vivo, human. Particulars: for Cobalamin Responder (%): number of subjects (%) with cobalamin >=350 pg/mL; for Cobalamin Responder (%) / Cobalamin Non-responder (%): ITT; for Cobalamin Non-responder (%): number of subjects (%); for mean (SD) percent change in cobalamin levels: serum. How it is done: In this study, the efficacy and safety of the oral vitamin B12 formulation (1 mg) of the present invention and intramuscular (IM) cyanocobalamin (1 mg) were evaluated in subjects with mild vitamin B12 deficiency.
as §1, §2, §3, §4, §5
The analysis of the primary efficacy outcome compared the proportion of subjects in each treatment group whose cobalamin levels were normalized (i.e., cobalamin ≧350 pg/mL) on Day 61 Visit. The number and frequency of normalized subjects was calculated. […]

Data set [4] can be described thus: Open label randomized study: plasma holotranscobalamin (active B12) levels. The format is in vivo, human. The settings on record: for Holotranscobalamin Responder (%): number of subjects (%) with holotranscobalamin >=40 pmol/L; for Holotranscobalamin Responder (%) / Holotranscobalamin Non-responder (%): ITT; for Holotranscobalamin Non-responder (%): number of subjects (%). How it is done: as §1, §2, §3, §5
The proportion of subjects who achieved normalization of holotranscobalamin levels (≧40 pmol/L) at Day 61 and Day 91 were analyzed using the same methodology as given for the primary analysis. The relationship between cobalamin and holotranscobalamin levels at Day 61 and Day 91, and the PCFB to Day 61 and Day 91 were explored. The relationship was analyzed graphically.

The nature of data set [5]: Vitamin B12 absorption after dosing Sprague-Dawley rats (plasma vitamin B12 by RIA). The format is in vivo. Particulars: for AUC / Cmax / Tmax: male Sprague-Dawley rats, mean, N = 5. How it is done: (1) 8.8 mg of vitamin B12, 35 mg of SNAC were weighed, thoroughly mixed and made into a tablet for dosing in rats; (2) 8.8 mg of vitamin B12, 35 mg of SNAC and 5 mg of capmul PG-8 (propylene glycol monocaprylate) were weighed, thoroughly mixed and made into a tablet; (3) 8.8 mg of vitamin B12, 35 mg of SNAC and 0.9 mg of povidone were weighed, thoroughly mixed and made into a tablet. Each of the […] processes was repeated to produce more tablets.
Male Sprague-Dawley rats (325-350 g) were dosed with vitamin B12 intravenously (0.5 mg/kg) alone, or orally with the tablets made in Example 4 at a dose of 50 mg/kg, vitamin B12 alone or in combination with SNAC at 200 mg/kg. Blood samples were collected at 0, 3, 10, 20, 30, 60, 120, 240 and 360 minutes post dosing. Plasma samples were analyzed for vitamin B12 by RIA. The model independent pharmacokinetic (PK) metrics obtained following administration of the vitamin B12/SNAC combination were compared to those obtained following administration of vitamin B12 alone.

[6] abbreviates: Day 1 (baseline prior to dosing).
[7] abbreviates: 50 mg/kg vitamin B12 PO (tablet).

In the case of cyanocobalamin [Oral cyanocobalamin], the “B12 levels increased by a mean value” in data set [1] (1000 μg/day oral, 1 week, in 17 of 20 elderly patients (Kaltenbach et al.)) is 0.23 µg/L. Besides, the “patients normalized (serum B12 levels)” value in data set [1] (2.5 year study (Andres et al.)) was 95%. In addition, in data set [1] (3 month studies (Andres et al.)), the “patients achieved normal serum B12 levels” value is listed as 80-90%. Further, the “patients with clinical improvements” value in data set [1] (Andres et al.) is given as 20-30%.
In the case of cyanocobalamin [IM B12], the “MMA, Mean” value in the data set on methylmalonic acid (MMA) (setting [6]) turned out to be 232 nmol/L; in the data set on methylmalonic acid (MMA) (Day 15), 128 nmol/L; with methylmalonic acid (MMA) (Day 61) it was 148 nmol/L; with methylmalonic acid (MMA) (Day 91), 149 nmol/L. Also, the “mean (SD) percent change in MMA levels” value is recorded as −28.17 (24.754) percent with methylmalonic acid (MMA) (Day 61, change from baseline) and −26.58 (25.643) percent in the data set on methylmalonic acid (MMA) (Day 91, change from baseline). For the same substance, the “Homocysteine, Mean” value came to 13 µmol/L in the data set on homocysteine (HC) (setting [6]), 10 µmol/L in the data set with homocysteine (HC) (Day 15), 11 µmol/L in the data set with homocysteine (HC) (Day 61) and 12 µmol/L in the data set with homocysteine (HC) (Day 91). Also, the “mean (SD) percent change in HC levels” value was −17.49 (24.099) percent in the data set on homocysteine (HC) (Day 61, change from baseline) and −8.805 (28.5406) percent in the data set on homocysteine (HC) (Day 91, change from baseline). The “subjects reported at least one AE” value in data set [2] is reported as 57.7%. In addition, the “subjects reported serious adverse events (SAEs)” value in data set [2] worked out at 11.5%. Besides, the “Subjects who discontinued because of an AE” value in data set [2] (safety population) is 0 (0)^ n (%). In data set [2] (safety population), the “Subjects with AEs” value is recorded as 15 (57.7) n (%). Further, the “Subjects with SAEs” value in data set [2] (safety population) is given as 3 (11.5) n (%). Besides, the “Subjects with TEAEs” value in data set [2] (safety population) is 15 (57.7) n (%). Further, the “Total B12, Mean” value in data set [3] (setting [6]) was 369 pg/mL; in data set [3] (Day 15) it was 2434 pg/mL; in data set [3] (Day 61) it was 2258 pg/mL; in data set [3] (Day 91) it was 2057 ± 935 pg/mL; in data set [3] (Day 91, listed as IM Treatment Group), 2057 pg/mL. In addition, the “Cobalamin Responder (%)” value in data set [3] (Day 15), in data set [3] (Day 61) and in data set [3] (Day 91) was 26 (100.0) % each time. The “Cobalamin Non-responder (%)” value in data set [3] (Day 15), in data set [3] (Day 61) and in data set [3] (Day 91) was 0 (0.0) % each time. Moreover, the “mean (SD) percent change in cobalamin levels” value is 714.6 (732.11) percent in data set [3] (Day 61, change from baseline) and 608.9 (446.68) percent in data set [3] (Day 91, change from baseline). The “HTC, Mean” value was 34.32 pmol/L in data set [4] (setting [6]), 899 pmol/L in data set [4] (Day 15), 739 pmol/L in data set [4] (Day 61) and 877 pmol/L in data set [4] (Day 91). Further, the “Holotranscobalamin Responder (%)” value in data set [4] (Day 15), in data set [4] (Day 61) and in data set [4] (Day 91) was 26 (100.0) % throughout. Further, the “Holotranscobalamin Non-responder (%)” value in data set [4] (Day 15), in data set [4] (Day 61) and in data set [4] (Day 91) was 0 (0.0) % each time.
As usually defined, the AUC is concentration integrated over time. The Cmax is the highest concentration seen after dosing. A word on the Tmax: it is the time from dosing to the highest level. As to Vitamin B12, in data set [5] (0.5 mg/kg IV), the AUC worked out at 65.84 µg·min/mL, the Cmax turned out to be 2150 ng/mL and the Tmax is listed as 4.4 min. Besides, in data set [5] (setting [7]), the AUC was found to be 28.72 µg·min/mL, the Cmax was determined as 140 ng/mL and the Tmax is recorded as 52 min. The “Mean Bioavailability” value in data set [5] (50 mg/kg vitamin B12 PO versus 0.5 mg/kg IV, rats) is recorded as 0.42%.
